The values below come from PubChem BioAssay AID652101 (NMMLSC, 2013).

The source made the active and inactive calls.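 Rule for the calls: active = at least 15% inhibition at the top concentration together with an EC50 under 10 microM; inactive = the rest.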

The first assay can be described thus: potency against LAMP-1 externalization in TALL-104 – TALL-104 cells, flow cytometry, CherryPick01, dose response (AID 652101).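 Note: 0% = stimulated DMSO control and 100% = unstimulated control wells.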 Particulars: TALL-104 lytic granule exocytosis, LAMP-1 flow cytometry; at 15.1 µM (top of the series). In general terms: A flow cytometer gives signals particle by particle.
What is called inhibition is the change of the read-out against control, counted positive when it falls. As for `Cc1cccc(C)c1-n1nnnc1C(CCc1ccccc1)N1CCC(n2c(=O)[nH]c3ccccc32)CC1` (configuration not stated), the inhibition was 94.8% (inactive). Same read-out and setting: the value for `CCOc1cccc(CNCCc2c(C)[nH]c3ccc(OC(F)(F)F)cc23)c1O` was 82.3% (inactive); that for `CC(C)CNC(=O)c1c(N)n(Cc2ccc3c(c2)OCO3)c2nc3ccccc3nc12` was 69.2% (inactive).

The assay is the same for the next values; noted with them: TALL-104 lytic granule exocytosis, LAMP-1 flow cytometry; at 15.1 µM (top of the series); stimulated with 1 µM thapsigargin, 50 nM PMA.
With `COc1ccc(-c2cc(NC(C)=O)c3ncc(-c4ccccc4)n3c2)c(OC)c1`, the inhibition is 106% (inactive). As for `CC(C)c1ccccc1OCC(O)CN(CC(O)COc1cccc2ccccc12)C(C)C` (configuration not stated), the inhibition is 101% (inactive). As for `COc1ccc2sc(N(CCCN(C)C)C(=O)c3ccc(S(=O)(=O)N4CCc5ccccc5C4)cc3)nc2c1`, the inhibition is 50% (inactive). Take `CCOCCCNC(=S)N1CCCN(c2nc3c(C)c(C)ccc3cc2C#N)CC1`: the inhibition is 83.8% (inactive).

Take `O=C(Nc1nc(-c2ccccc2)cs1)c1ccc2c(=O)n3c(nc2c1)CCCCC3`: the inhibition is 74.2% (inactive).

On to `Cc1ccc2nc(-c3ccc(N4C(=O)CC(N5CCN(CCO)CC5)C4=O)cc3)sc2c1` (configuration not stated), for which the inhibition was 83.1% (inactive). As to `CCC(C)Nc1nc(-c2cccc(OC)c2O)nc2ccccc12` (configuration not stated), the inhibition was 101% (inactive).

Turning to `CC(=O)Nc1ccc2c(=O)n(-c3ccccc3)sc2c1`, the inhibition was 67.8% (inactive). Consider `O=c1c(Cl)c2oc3ccccc3nc-2c2ccccc12`, for which the inhibition was -0.07% (inactive).

Regarding `CCCCCc1c(-c2cccc(F)c2)ncn1CCc1ccccc1OC`, the inhibition was 102% (inactive). Turning to `CCC(=C(c1ccc(OC)cc1)c1ccc(OC)cc1)c1cn(CC(O)CN2CCN(C)CC2)c2ccccc12` (configuration not stated), the inhibition is 87.4% (inactive).

Regarding `O=C(Nc1ccc2nc(-c3cccs3)c(-c3cccs3)nc2c1)NC1CC1`, the inhibition was 68.3% (inactive).

Take `Cc1cc(C)c2sc(N(CCCN(C)C)C(=O)c3ccc(S(=O)(=O)N4CCc5ccccc5C4)cc3)nc2c1`: the inhibition is -21.4% (inactive). The same measure, in the same setting: next, `O=C(Nc1ccc2nc(-c3cccs3)c(-c3cccs3)nc2c1)N1CCOCC1`: -2.59% (inactive). On to `OC(CNCC(c1ccc(Cl)cc1Cl)c1c[nH]c2ccccc12)c1ccccc1` (configuration not stated), for which the inhibition was 81.7% (inactive).

As to `COC(=O)c1ccc(NCc2c(O)ccc(O)c2Br)cc1Cl`, the inhibition is 72.6% (inactive).

Take `O=c1c2ccc(F)cc2sn1-c1ccccc1`: the inhibition was 75.9% (inactive). As for `CCOC(=O)c1c(C)oc2c1c(C(c1cccnc1)N1CCOCC1)c(O)c1ccccc12` (configuration not stated), the inhibition was 95% (inactive).

`CCCCC[C@@H](C)N1C[C@H](COCc2ccccc2)Oc2cc(N3CC[C@@H](N(C)C)C3)ccc2S1(=O)=O`: the inhibition is 65% (inactive). In the case of `COC(=O)c1ccc(N2CCN(C)CC2)c(NC(=O)c2sc3ccccc3c2Cl)c1`, the inhibition was 70.3% (inactive). With `NCCc1c(-c2ccccc2)n(-c2ccccc2)c2ccccc12`, the inhibition was 68.2% (inactive). Consider `CN1CCN(CCCNC(=O)c2ccc(/C=C3\Sc4ccccc4N(Cc4ccc(F)cc4)C3=O)cc2)CC1`, for which the inhibition is 89.7% (inactive). Take `Cn1c(=O)c(N)c2c3c(c(Br)ccc31)C(=O)c1ccccc1-2`: the inhibition is 1.57% (inactive). Turning to `CCOc1ccccc1CNC(=O)C1CCN(c2nnc(C)c3c(C)n(-c4ccc(C)cc4)nc23)CC1`, the inhibition is 59.4% (inactive).

As to `CC1(C(=O)OCC(=O)Nc2nc(-c3ccc(F)c(F)c3)cs2)CC1(Cl)Cl` (configuration not stated), the inhibition is 95% (inactive).

Turning to `COc1ccc(-c2cc(NC=O)c3ncc(-c4cccc(OC)c4)n3c2)cc1`, the inhibition was 101% (inactive). Consider `CCOc1ccc(C(=O)CCN2CCCCCC2)cc1`, for which the inhibition is 91.4% (inactive).

As for `N#Cc1c(NC(=O)c2ccc(Br)o2)n(-c2ccccc2)c2nc3ccccc3nc12`, the inhibition was -12.1% (inactive). `COc1cc(-c2coc3c(C(=O)NCc4ccc(OC)c(OC)c4)cccc23)ccc1O`: the inhibition was 104% (inactive).
